The supplement of paper PMC11451515

Tests used:
Settings in all cases: 48 h
SEM cells [1] = test: AUC of viability dose-response curve (% viability x log10 dose units); higher = less sensitive
How it was run: (§1)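 In 1536-well plates, leukemia cells adapted to each medium (500 or 1000 cells/well) were exposed for 48 h at 37°C to library compounds in DMSO across 11 threefold doses, 47 μM down to 0.79 nM. Viability was read by CellTiter-Glo One luminescence and normalised per plate to DMSO and cell-free wells. A four-parameter log-logistic fit over log10 doses was integrated by trapezoidal rule. This yielded the area under the curve, with over-full-viability curves scaled and quality-control failures dropped.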

NOMO1 [2] = test: as above
How it was run: as §1

P12-Ichikawa [3] = test: as above
How it was run: as §1

SEM cells [4] = test: cell viability relative to DMSO control; higher = less cytotoxic
How it was run: (§2)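 Viability was expressed as a per-plate percentage of DMSO wells, with cell-free wells as background. Leukemia cells (NOMO1 or SEM at 500 cells/well, P12-Ichikawa at 1000 cells/well) were adapted for at least four passages in each medium and seeded in 1536-well plates (5 μl). Library compounds in DMSO were pin-dosed over an 11-point threefold series from 47 μM to 0.79 nM, and CellTiter-Glo One luminescence was read after 48 h at 37°C.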

NOMO1 [5] = test: as above
How it was run: as §2

P12-Ichikawa [6] = test: as above
How it was run: as §2

Cc1ncc(-c2ccnc(Nc3ccc([S+](C)(=O)[O-])cc3)n2)n1C(C)C
AUC of viability dose-response curve
Settings	NOMO1 [2]	P12-Ichikawa [3]	SEM cells [1]
HPLM + 10% dialyzed FBS	400	437	367
RPMI 5 mM glucose + 10% FBS	396	412	357
RPMI 5 mM glucose + 10% dialyzed FBS	389	416	380

O=C(Nc1cccc(Br)c1)c1cccc([S+](=O)([O-])N2CCCCCC2)c1
AUC of viability dose-response curve
Settings	NOMO1 [2]	P12-Ichikawa [3]	SEM cells [1]
HPLM + 10% dialyzed FBS	462	450	447
RPMI 5 mM glucose + 10% FBS	460	457	436
RPMI 5 mM glucose + 10% dialyzed FBS	470	464	441

FC(F)(F)c1ccc(CNc2ccc(Cc3c[nH]c4ncc(Cl)cc34)cn2)cn1
AUC of viability dose-response curve
Settings	HPLM + 10% dialyzed FBS	RPMI 5 mM glucose + 10% FBS	RPMI 5 mM glucose + 10% dialyzed FBS
P12-Ichikawa [3]	268	367	370
SEM cells [1]	317	245	314

COc1ccc(-c2ccc3cc(C(=O)O)ccc3c2)cc1C12CC3CC(CC(C3)C1)C2
AUC of viability dose-response curve
Settings	NOMO1 [2]	P12-Ichikawa [3]	SEM cells [1]
HPLM + 10% dialyzed FBS	436	465	459
RPMI 5 mM glucose + 10% FBS	441	447	468
RPMI 5 mM glucose + 10% dialyzed FBS	387	458	459

CSCC[C@H](NC(=O)[C@H](Cc1c[nH]c2ccccc12)NC(=O)CCNC(=O)OC(C)(C)C)C(=O)N[C@@H](CC(=O)O)C(=O)N[C@@H](Cc1ccccc1)C(N)=O
AUC of viability dose-response curve
Settings	NOMO1 [2]	P12-Ichikawa [3]	SEM cells [1]
HPLM + 10% dialyzed FBS	440	470	460
RPMI 5 mM glucose + 10% FBS	453	464	461
RPMI 5 mM glucose + 10% dialyzed FBS	456	470	459

CN1C2CCC1CC(OC(=O)C(CO)c1ccccc1)C2 (stereo unspecified)
AUC of viability dose-response curve
Settings	NOMO1 [2]	P12-Ichikawa [3]	SEM cells [1]
HPLM + 10% dialyzed FBS	467	454	464
RPMI 5 mM glucose + 10% FBS	463	465	439
RPMI 5 mM glucose + 10% dialyzed FBS	472	469	474

O[C@@H]1[C@@H](O)[C@H](O[C@@H]([C@H]1O)C(O)=O)OC2=C(O)C(=C3C(=O)\C=C(/OC3=C2)C4=CC=CC=C4)O
AUC of viability dose-response curve
Settings	NOMO1 [2]	P12-Ichikawa [3]	SEM cells [1]
HPLM + 10% dialyzed FBS	445	447	446
RPMI 5 mM glucose + 10% FBS	427	448	409
RPMI 5 mM glucose + 10% dialyzed FBS	460	460	425

CN(C)CCCN\C1=C\2C(=O)N(C)C(=O)\N=C2N(C)C3=C1C=CC=C3
AUC of viability dose-response curve
Settings	NOMO1 [2]	P12-Ichikawa [3]	SEM cells [1]
HPLM + 10% dialyzed FBS	446	442	396
RPMI 5 mM glucose + 10% FBS	446	421	394
RPMI 5 mM glucose + 10% dialyzed FBS	432	429	397

CCC(C1CCC(C)C(O1)C(C)C(O)C(C)C(=O)C(CC)C2OC\3(O[C@]4(CC[C@@](C)(O4)C5CC[C@@](O)(CC)C(C)O5)C(O)\C=C3)C(C)CC2C)C([O-])=O (stereo partly specified)
P12-Ichikawa [3]
Settings	AUC of viability dose-response curve
HPLM + 10% dialyzed FBS	426
RPMI 5 mM glucose + 10% FBS	403
RPMI 5 mM glucose + 10% dialyzed FBS	382

cell viability [%]
Settings	NOMO1 [5]	P12-Ichikawa [6]	SEM cells [4]
HPLM + 10% dialyzed FBS, 0.000781 µM	111	103	105
HPLM + 10% dialyzed FBS, 0.00234 µM	121	112	13.3
HPLM + 10% dialyzed FBS, 0.00702 µM	101	109	124
HPLM + 10% dialyzed FBS, 0.0211 µM	91.2	101	103
HPLM + 10% dialyzed FBS, 0.0632 µM	119	106	113
HPLM + 10% dialyzed FBS, 0.19 µM	109	106	118
HPLM + 10% dialyzed FBS, 0.569 µM	117	105	116
HPLM + 10% dialyzed FBS, 1.71 µM	68.6	82.8	77.4
HPLM + 10% dialyzed FBS, 5.12 µM	38	74.5	29.6
HPLM + 10% dialyzed FBS, 15.4 µM	27.3	74.8	22.9
HPLM + 10% dialyzed FBS, 46.1 µM	26.4	64.5	21.3
RPMI 5 mM glucose + 10% FBS, 0.000781 µM	90.5	85	107
RPMI 5 mM glucose + 10% FBS, 0.00234 µM	34.1	111	101
RPMI 5 mM glucose + 10% FBS, 0.00702 µM	99.9	101	110
RPMI 5 mM glucose + 10% FBS, 0.0211 µM	90.6	111	107
RPMI 5 mM glucose + 10% FBS, 0.0632 µM	114	104	110
RPMI 5 mM glucose + 10% FBS, 0.19 µM	110	109	109
RPMI 5 mM glucose + 10% FBS, 0.569 µM	97.1	100	98.3
RPMI 5 mM glucose + 10% FBS, 1.71 µM	67.6	73.7	55
RPMI 5 mM glucose + 10% FBS, 5.12 µM	19.7	60.9	25.5
RPMI 5 mM glucose + 10% FBS, 15.4 µM	16.6	56.1	14.3
RPMI 5 mM glucose + 10% FBS, 46.1 µM	15.3	42.5	10.4
RPMI 5 mM glucose + 10% dialyzed FBS, 0.000781 µM	96.9	96.4	58.1
RPMI 5 mM glucose + 10% dialyzed FBS, 0.00234 µM	78.6	107	15
RPMI 5 mM glucose + 10% dialyzed FBS, 0.00702 µM	132	109	97.9
RPMI 5 mM glucose + 10% dialyzed FBS, 0.0211 µM	153	113	97.9
RPMI 5 mM glucose + 10% dialyzed FBS, 0.0632 µM	119	112	113
RPMI 5 mM glucose + 10% dialyzed FBS, 0.19 µM	75.1	108	97.8
RPMI 5 mM glucose + 10% dialyzed FBS, 0.569 µM	102	86.2	89.1
RPMI 5 mM glucose + 10% dialyzed FBS, 1.71 µM	36.2	68.8	50.2
RPMI 5 mM glucose + 10% dialyzed FBS, 5.12 µM	15.2	55.7	26.9
RPMI 5 mM glucose + 10% dialyzed FBS, 15.4 µM	13.5	44.9	22.5
RPMI 5 mM glucose + 10% dialyzed FBS, 46.1 µM	11	41.1	14.3
